{
  "source": "patent US20210017607A1",
  "about": "“Methods of Predicting Responsiveness to Cancer Therapies” (The University of Chicago, priority 2019, published 2021)",
  "key": {"Myc-CAP-PTEN^−/− cells": {"system": "Myc-CAP-PTEN^−/− cells", "test": "Myc-CAP-PTEN−/− cells in vitro (western blotting, cytokine array)", "format": "cell-based, mouse", "conditions": "24 hours", "protocol": "FIGS. 35A-35D. […] (35A) Myc-CAP-PTEN^−/− cells were treated with copanlisib […] (IC90 concentration) in vitro for 24 hours, and protein extracts were harvested for western blotting analysis with the indicated antibodies to analyze PI3K activation. (35B) Supernatants from (35A) were harvested for cytokine array profiling. n=3 independent in vitro experiments. (35C) Mice bearing Myc-CAP-PTEN^−/− established syngeneic tumors (200 mm^3) were treated with copanlisib (14 mg/kg, every other day, until tumors reached 2000 mm^3). Tumor volumes were monitored daily and graphed. (35D) At the end of treatment, tumors were analyzed by flow cytometry for tumor infiltrating immune cell subsets. n=5 mice per group.\nFIGS. 49A and 49B. PTEN-deficient cancer cells have diminished STING expression that can be restored by […] and pan-PI3K inhibitors. (49A) Isogenic MC38, Myc-CAP, ID8, and TRAMP cells (−/+ PTEN) were analyzed for STING mRNA and protein expression by qRT-PCR and western blotting, respectively. (49B) Myc-CAP-PTEN^−/− cells were treated with GSK′771 (PI3Kβ-selective inhibitor, 1 μM) or BKM120 (pan-PI3K inhibitor, 1 μM) for 24 hours, and proteins were analyzed for STING expression and PI3K activation by western blotting.\nCancer Cell Lines and in vitro drug treatments. Transgenic c-myc^hi prostate tumor derived cell line, Myc-CAP and TRAMPC1, ovarian cancer cell line ID8 and murine colon adenocarcinoma line MC38 were obtained from the American Type Culture Collection (ATCC) and passaged in either 1×RPMI/1×DMEM (with phenol) or 1×DMEM (without phenol red) containing 10% fetal bovine serum, 1% penicillin-streptomycin, 2% L-glutamine and 1×ITS. ID8^pten−/−p53−/−cells were a kind gift from Dr. Ian McNeish (Imperial College, London). For generation of STING over expressing cell lines −Myc-CAP^pten+/+ and ID8^pten−/− cells were transfected with commercial available plasmid (DC-Mm22462-SH02, Genecoepia™), sorted and expanded as per protocol. […]"}, "[1]": {"system": "Myc-CAP-PTEN-deficient cancer cells", "test": "Exosome dsDNA content by Nanodrop", "format": "cell-based, mouse", "conditions": "rucaparib 36 hours", "protocol": "FIGS. 40A and 40B. […] Isogenic PTEN-proficient and CRISPR-CAS9-mediated PTEN-knockout Myc-CAP cells were treated with rucaparib for 36 hours. Exosomes were collected by ultracentrifugation and used for quantification of particle number by Nanosight (40A) and dsDNA content by Nanodrop® (40B). n=2 experiments.\nFIGS. 41A and 41B. […] Exosomes were collected by ultracentrifugation and used for quantification of particle number by Nanosight (41A) and dsDNA content by Nanodrop® (41B). n=2 experiments.\nMicrovesicle Isolation (MVs)/DNA extraction. Cells were treated for 36 hours with the indicated drugs, and supernatants were harvested and then centrifuged at 300×g for 5 minutes at 4° C. to pellet cells, This was followed by additional centrifugation steps at 2,000×g for 10 min at 4° C. to eliminate dead cell debris and at 10,000×g for 30 min in at 4° C. to remove larger vesicles. The supernatant was then collected and subjected to 100,000×g centrifugation in a Type 60 Ti rotor (38000 rpm) for 70 min at 4 ° C. […] The final EV pellet was collected in 1×PBS and used for quantification. […] Equal numbers of EVs were collected from each treatment group and DNA was extracted using Trizol® LS as per protocol (Thermo Fischer Scientific®) and then quantified using Nanodrop®."}},
  "data": [
    {"smiles": "COc1c(OCCCN2CCOCC2)ccc2c1N=C(NC(=O)c1cnc(N)nc1)N1CCN=C21", "note": "[copanlisib]", "values": [
      {"measurement": "CXCL1 production", "setting": "Myc-CAP-PTEN^−/− cells; copanlisib 100 nm, cytokine array", "result": "decreasing CXCL1 production"}
    ]},
    {"smiles": "Nc1cc(C(F)(F)F)c(-c2cc(N3CCOCC3)nc(N3CCOCC3)n2)cn1", "note": "[buparlisib]", "values": [
      {"measurement": "STING expression (western blotting)", "setting": "Myc-CAP-PTEN^−/− cells; 1 μM", "result": "restored"}
    ]},
    {"smiles": "CNCc1ccc(-c2[nH]c3cc(F)cc4c3c2CCNC4=O)cc1", "note": "[rucaparib]", "values": [
      {"measurement": "exosomal dsDNA content relative to PTEN-proficient counterparts", "setting": "[1]; CRISPR-CAS9 PTEN-knockout", "result": "significantly reduced dsDNA content"},
      {"measurement": "exosomal dsDNA content relative to PTEN-proficient counterparts", "setting": "[1]; siRNA PTEN-knockdown", "result": "significantly reduced dsDNA content"}
    ]}
  ]
}
